In brackets after ≈: the same amount, converted by molar mass. Activity calls are given as the source filed them. The rule behind the calls is not given here.
Assays:
[1] = system: Mycobacterium tuberculosis; test: Antimycobacterial activity against GFP-tagged Mycobacterium tuberculosis H37Rv infected in mouse RAW264.7 cells incubated for 4 days by Mask blue/Hoechst/FITC staining based fluorescence microscopic analysis; type: functional; conditions: 96 h
[2] = system: Mycobacterium tuberculosis; test: Antimycobacterial activity against Mycobacterium tuberculosis H37Rv incubated for 5 days by Bactiter-Glo assay; type: functional; conditions: 120 h
[3] = Cytotoxicity against human HepG2 cells assessed as reduction in cell viability after 40 hrs by Celltiter-Glo assay
[4] = system: Mycobacterium tuberculosis; test: Antimycobacterial activity against Mycobacterium tuberculosis H37Rv incubated for 5 days in presence of 25% human serum by Bactiter-Glo assay; type: functional; conditions: 120 h
[5] = system: Mycobacterium tuberculosis; test: Ratio of MIC80 for Mycobacterium tuberculosis H37Rv in presence of 25% human serum to MIC80 for Mycobacterium tuberculosis H37Rv; type: functional
[6] = molecular target: T1, Cytochrome P450 3A4 (Homo sapiens, UniProt P08684); test: Inhibition of CYP3A4 in human liver microsomes assessed as 1'-hydroxymidazolam metabolite formation using midazolam as substrate incubated for 10 mins by HPLC-MS method
[7] = Lipophilicity, log P of compound; conditions: octanol/water
[8] = Aqueous equilibrium solubility of compound in pH 1 solution at 20 degC; conditions: aqueous pH 1 solution
[9] = molecular target: T1, Cytochrome P450 3A4; test: Inhibition of CYP3A4 in human liver microsomes assessed as 6-beta-hydroxytestosterone metabolite formation using testosterone as substrate incubated for 30 mins by HPLC-MS method
[10] = Permeability in human Caco2 cells; conditions: caco-2
[11] = Aqueous equilibrium solubility of compound in pH 7.4 solution at 20 degC; conditions: aqueous pH 7.4 solution
[12] = system: Mycobacterium tuberculosis; test: Antimycobacterial activity against Mycobacterium tuberculosis H37Rv infected in Balb/c mouse assessed as bacterial burden in lungs at 30 mg/kg, po administered daily through gavage starting on day 2 post infection for 4 days per week for 2 weeks as vitamin E/water formulation measured on day 12 post infection (reference value: 7.6 log10CFU); type: functional, Lung
[13] = Bioavailability in Swiss mouse at 3 mg/kg, iv administered as single bolus dose in NMP/Solutol HS15/PBS solution after 24 hrs; type: ADME, organism-based; conditions: in vivo
[14] = AUC in Balb/c mouse plasma infected with Mycobacterium tuberculosis H37Rv at 10 to 100 mg/kg, po administered through gavage as lipidic/water formulation; type: ADME, organism-based
[15] = system: Mycobacterium tuberculosis; test: Antimycobacterial activity against Mycobacterium tuberculosis H37Rv infected in po dosed Balb/c mouse assessed as log10 reduction in CFU in lungs administered daily through gavage starting on day 2 post infection for 4 days per week for 2 weeks as lipidic/water formulation measured on day 12 post infection; type: functional; conditions: read-out: MED
[16] = system: Mycobacterium tuberculosis; test: Antimycobacterial activity against Mycobacterium tuberculosis H37Rv infected in Balb/c mouse assessed as bacterial burden in lungs at 100 mg/kg, po administered daily through gavage starting on day 2 post infection for 4 days per week for 2 weeks as vitamin E/water formulation measured on day 12 post infection (reference value: 7.6 log10CFU); type: functional, Lung
[17] = system: Mycobacterium tuberculosis; test: Antimycobacterial activity against Mycobacterium tuberculosis H37Rv infected in Balb/c mouse assessed as bacterial burden in lungs at 300 mg/kg, po administered daily through gavage starting on day 2 post infection for 4 days per week for 2 weeks as vitamin E/water formulation measured on day 12 post infection (reference value: 7.6 log10CFU); type: functional, Lung
[18] = Time at which plasma concentration stays above invitro MIC80 in presence of mouse serum in Balb/c mouse infected with Mycobacterium tuberculosis H37Rv at 100 mg/kg, po administered through gavage as lipidic/water formulation; type: ADME, organism-based; conditions: in vivo
[19] = Protein binding in human plasma at 1 to 10 uM after 4 hrs by LC-MS/MS analysis; type: ADME, cell-free; conditions: read-out: PPB (converted)
[20] = Protein binding in Swiss mouse plasma at 1 to 10 uM after 4 hrs by LC-MS/MS analysis; type: ADME, cell-free; conditions: read-out: PPB (converted)
[21] = system: Mycobacterium tuberculosis; test: Antimycobacterial activity against Mycobacterium tuberculosis H37Rv incubated for 5 days in presence of 25% mouse serum by Bactiter-Glo assay; type: functional; conditions: 120 h
[22] = system: Mycobacterium tuberculosis; test: Antimycobacterial activity against Mycobacterium tuberculosis H37Rv infected in Balb/c mouse assessed as bacterial burden in lungs at 600 mg/kg, po administered daily through gavage starting on day 2 post infection for 4 days per week for 2 weeks as lipidic/water formulation measured on day 12 post infection (reference value: 7.2 log10CFU); type: functional, Lung
[23] = Time at which lung concentration stays above invitro MIC80 in presence of mouse serum in Balb/c mouse infected with Mycobacterium tuberculosis H37Rv at 100 mg/kg, po administered through gavage as lipidic/water formulation; type: ADME, organism-based; conditions: in vivo
[24] = Drug metabolism in human liver microsomes assessed as CYP450/FMO-mediated demethylation of methoxy group/hydroxylation of distal aryl ring at 5 uM after 20 mins in presence of NADPH; type: ADME
[25] = Selectivity index, ratio of IC50 for human HepG2 cells to MIC80 for Mycobacterium tuberculosis H37Rv; type: toxicity, cell-based; conditions: read-out: Selectivity Index
[26] = Drug metabolism in human hepatocytes assessed as demethylation of methoxy group/hydroxylation of distal aryl ring; type: ADME, cell-based, Hepatocyte
[27] = system: Salmonella typhimurium; test: Genotoxicity in Salmonella typhimurium by Ames test; type: toxicity, organism-based; conditions: salmonella enterica subsp. enterica serovar typhimurium
[28] = molecular target: hERG (KCNH2) (Homo sapiens, UniProt Q12809); test: Inhibition of human ERG at 10 uM relative to control
[29] = system: Mycobacterium tuberculosis; test: Bacteriostatic activity against Mycobacterium tuberculosis H37Rv incubated for 5 days by Bactiter-Glo assay; type: functional
[30] = system: Mycobacterium tuberculosis; test: Growth inhibition of Mycobacterium tuberculosis H37Rv at 10 uM incubated for 5 days by Bactiter-Glo assay relative to control; type: functional; conditions: 120 h, read-out: GI

T1 sequence (P08684 whole entry): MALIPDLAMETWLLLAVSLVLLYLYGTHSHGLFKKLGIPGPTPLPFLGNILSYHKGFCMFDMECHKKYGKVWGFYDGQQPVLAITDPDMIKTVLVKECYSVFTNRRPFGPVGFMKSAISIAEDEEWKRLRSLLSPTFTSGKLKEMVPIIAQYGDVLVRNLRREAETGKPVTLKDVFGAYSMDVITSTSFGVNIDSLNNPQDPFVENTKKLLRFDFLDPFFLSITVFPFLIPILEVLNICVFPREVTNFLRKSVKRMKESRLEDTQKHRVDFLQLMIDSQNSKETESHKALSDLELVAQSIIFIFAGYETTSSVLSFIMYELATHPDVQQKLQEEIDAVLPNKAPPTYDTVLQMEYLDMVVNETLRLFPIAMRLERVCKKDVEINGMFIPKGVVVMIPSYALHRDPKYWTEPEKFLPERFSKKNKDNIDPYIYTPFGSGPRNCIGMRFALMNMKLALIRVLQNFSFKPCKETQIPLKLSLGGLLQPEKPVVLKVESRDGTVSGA
Chain of hERG (KCNH2) (Q12809 whole entry): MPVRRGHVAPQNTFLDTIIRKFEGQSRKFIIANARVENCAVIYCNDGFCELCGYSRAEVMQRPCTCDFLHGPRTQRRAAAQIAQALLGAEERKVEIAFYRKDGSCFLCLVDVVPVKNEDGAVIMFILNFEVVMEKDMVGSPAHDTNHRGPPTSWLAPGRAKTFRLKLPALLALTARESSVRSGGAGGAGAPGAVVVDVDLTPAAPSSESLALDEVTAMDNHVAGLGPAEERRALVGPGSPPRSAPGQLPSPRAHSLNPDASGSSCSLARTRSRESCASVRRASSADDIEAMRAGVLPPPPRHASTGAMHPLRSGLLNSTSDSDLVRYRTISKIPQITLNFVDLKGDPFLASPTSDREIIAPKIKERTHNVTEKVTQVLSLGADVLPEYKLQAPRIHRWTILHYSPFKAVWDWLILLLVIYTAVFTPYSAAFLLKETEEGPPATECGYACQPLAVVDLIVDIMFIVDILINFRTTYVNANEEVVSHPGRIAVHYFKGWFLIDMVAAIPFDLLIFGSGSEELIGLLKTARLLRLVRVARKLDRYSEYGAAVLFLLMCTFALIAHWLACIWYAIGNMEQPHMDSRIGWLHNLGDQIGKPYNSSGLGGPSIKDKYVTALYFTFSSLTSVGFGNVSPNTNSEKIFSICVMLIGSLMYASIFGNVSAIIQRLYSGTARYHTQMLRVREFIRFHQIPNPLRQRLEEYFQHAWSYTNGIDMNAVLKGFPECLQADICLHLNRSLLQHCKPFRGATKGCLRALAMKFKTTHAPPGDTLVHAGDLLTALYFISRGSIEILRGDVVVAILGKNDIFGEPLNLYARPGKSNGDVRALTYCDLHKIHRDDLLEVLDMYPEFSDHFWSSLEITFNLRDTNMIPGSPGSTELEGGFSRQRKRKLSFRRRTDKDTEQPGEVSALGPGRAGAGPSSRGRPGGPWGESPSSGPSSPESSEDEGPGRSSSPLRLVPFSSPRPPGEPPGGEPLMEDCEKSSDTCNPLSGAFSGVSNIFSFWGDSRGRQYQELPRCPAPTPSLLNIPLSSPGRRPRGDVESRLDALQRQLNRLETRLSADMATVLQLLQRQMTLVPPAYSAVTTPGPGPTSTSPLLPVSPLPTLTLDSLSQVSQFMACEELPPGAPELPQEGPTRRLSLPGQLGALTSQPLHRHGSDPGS

SMILES	MIC80 [1]	MIC80 [2]	MIC80 [4]	Ratio [5]	IC50 [6]	logP [7]	solubility thermodynamic [8]	IC50 [9]	permeability [10]	IC50 at 40 h ([3]; HepG2 cells)	solubility thermodynamic [11]	other results
COc1cnc(-c2ccc(CCNc3nc4cc(Cl)ccc4c(=O)n3C)cc2)nc1	0.081 µM (≈ 0.0342 µg/mL)	0.016 µM (≈ 0.00675 µg/mL)	3.52 µM									IC50 at 40 h ([3]; hepg2): > 30 µM
COc1ccc(-c2ccc(CCNc3nc4cc(Cl)ccc4c(=O)n3C)cc2)cc1		0.007 µM (≈ 0.00294 µg/mL)	1.47 µM	200	8 µM	5.13	26 µg/mL (≈ 61.9 µM)	7.9 µM	Permeable	> 30 µM	< 1 µg/mL	
Cn1c(NCCc2ccc(-c3ccc(F)cc3)cn2)nc2cc(Cl)ccc2c1=O	0.201 µM (≈ 0.0822 µg/mL)	0.06 µM (≈ 0.0245 µg/mL)	4.02 µM	8		4.23				0.057 µM		
Cn1c(NCCc2ccc(-c3ncc(F)cn3)cc2)nc2cc(Cl)ccc2c1=O	0.013 µM (≈ 0.00533 µg/mL)	0.003 µM (≈ 0.00123 µg/mL)	0.39 µM	30	> 30 µM	4.46	11 µg/mL (≈ 26.8 µM)	9.9 µM	Permeable	> 30 µM	< 1 µg/mL	
Cn1c(NCCc2ccc(Oc3ccc(Cl)cc3)cc2)nc2cc(Cl)ccc2c1=O	0.133 µM (≈ 0.0586 µg/mL)	0.036 µM (≈ 0.0159 µg/mL)	1.9 µM	8	14 µM	5.66	< 1 µg/mL	29 µM	Permeable	10.9 µM	< 1 µg/mL	Activity [12]: 7.5 log10CFU; bioavailability [13]: 90%; AUC [14]: 21000 ng·h/mL; minimal effective dose [15]: 600 mg/kg; Activity [16]: 7.1 log10CFU; Activity [17]: 7 log10CFU; Time [18]: > 96 h; fraction unbound at 4 h [19]: 0.001; fraction unbound at 4 h [20]: 0.001; MIC80 [21]: 0.42 µM; Activity [22]: 6.3 log10CFU; Time [23]: > 96 h
Cn1c(NCCc2ccc(-c3ncc(Cl)cn3)cc2)nc2cc(Cl)ccc2c1=O	0.947 µM (≈ 0.404 µg/mL)	0.006 µM (≈ 0.00256 µg/mL)	0.11 µM			5.02	10 µg/mL (≈ 23.5 µM)		Permeable	> 30 µM	< 1 µg/mL	
Cn1c(NCCc2ccccc2)nc2cc(Cl)ccc2c1=O		0.06 µM (≈ 0.0188 µg/mL)	2.79 µM	8	11 µM	4.24	180 µg/mL (≈ 574 µM)	18 µM	Permeable	15.2 µM	< 1 µg/mL	
Cn1c(NCCc2ccc(-c3ccc(F)cn3)cc2)nc2cc(Cl)ccc2c1=O	0.051 µM (≈ 0.0209 µg/mL)	0.015 µM (≈ 0.00613 µg/mL)	3.14 µM									IC50 at 40 h ([3]; hepg2): 19 µM
COc1ccc(CCNc2nc3cc(Cl)ccc3c(=O)n2C)cc1	0.163 µM (≈ 0.056 µg/mL)	0.038 µM (≈ 0.0131 µg/mL)	0.43 µM	>10	< 1 µM	4.08	11 µg/mL (≈ 32 µM)	4.3 µM	Permeable	13.4 µM	≤ 1 µg/mL	Drug metabolism [24]: Metabolite_Detected; selectivity ratio [25]: > 10; Drug metabolism [26]: Metabolite_Detected; Activity [27]: Non-Toxic; inhibition at 10 µM [28]: 35%; Activity [29]: Active; inhibition of growth at 10 µM [30]: > 50%; MIC80 [21]: 0.013 µM
Cn1c(NCCc2ccc(-c3ccccc3)cc2)nc2cc(Cl)ccc2c1=O	0.164 µM (≈ 0.0639 µg/mL)	0.008 µM (≈ 0.00312 µg/mL)	0.87 µM	8	> 30 µM	5.27	5 µg/mL (≈ 12.8 µM)	> 30 µM	Permeable	6.5 µM	< 1 µg/mL	
Cn1c(NCCc2ccc(OC(F)(F)F)cc2)nc2cc(Cl)ccc2c1=O		0.07 µM (≈ 0.0278 µg/mL)	2.33 µM	8	4 µM	4.95	43 µg/mL (≈ 108 µM)	> 30 µM	Permeable	9.9 µM	< 1 µg/mL	
Cn1c(NCCc2ccc(-c3ccc(Cl)cn3)cc2)nc2cc(Cl)ccc2c1=O	0.063 µM (≈ 0.0268 µg/mL)	0.002 µM (≈ 0.000851 µg/mL)	0.25 µM	30	> 30 µM	5.04	21 µg/mL (≈ 49.4 µM)	8.4 µM	Permeable	> 30 µM	< 1 µg/mL	

Reference: ChEMBL document CHEMBL3853353, “Identification and optimization of a new series of anti-tubercular quinazolinones” (Bioorg Med Chem Lett, 2016)
